# In patent US11028079B2 (ConverGene LLC, priority 2015, dated 2021):
# pKd: −log10 of the molar value.
# Target: T1, BRD4 bromodomains (Homo sapiens, UniProt O60885)
# T1 construct: fused on or other part: T7 phage capsid protein (phage-display fusion; the phage DNA is read out by qPCR)
# Assay: BROMOscan bromodomain competition binding assay (DiscoveRx)
# Settings: Kd from 11 compound concentrations ranging from 0 to 10 μM, read-out: BROMOscan Relative Activity
# Method in brief: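 Compounds in 0.1% DMSO/0.9% MEG competed with a solid-phase acetylated peptide for T7 phage-fused BRD4 bromodomains, with the retained bromodomain measured by qPCR.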
row,pKd,Compound
1,> 6.30,"Cn1cc(-c2ccc3nc(-c4cnn(CCC#N)c4)nc(NCc4cccc(Cl)c4)c3c2)ccc1=O [Example 104, 3-(4-(4-((3-chlorobenzyl)amino)-6-(1-methyl-6-oxo-1,6-dihydropyridin-3-yl)quinazolin-2-yl)-1H-pyrazol-1-yl)propanenitrile]"
2,> 6.30,"CN1CCC(NC(=O)c2cc(NCc3cccc(Cl)c3)c3cc(-c4ccc(=O)n(C)c4)ccc3n2)CC1 [Example 227, 4-((3-chlorobenzyl)amino)-6-(1-methyl-6-oxo-1,6-dihydropyridin-3-yl)-N-(1-methylpiperidin-4-yl)quinoline-2-carboxamide]"
3,> 6.30,"Cc1noc(C)c1-c1ccc2nc(-c3cnn(C(C)(C)CO)c3)nc(NCc3cccc(Cl)c3)c2c1 [Example 62, 2-(4-(4-((3-chlorobenzyl)amino)-6-(3,5-dimethylisoxazol-4-yl)quinazolin-2-yl)-1H-pyrazol-1-yl)-2-methylpropan-1-ol]"
4,> 6.30,"Cc1noc(C)c1-c1ccc2nc(N(C)CCN(C)C)nc(NCc3cccc(Cl)c3)c2c1 [Example 22, N4-(3-chlorobenzyl)-N2-(2-(dimethylamino)ethyl)-6-(3,5-dimethylisoxazol-4-yl)-N2-methylquinazoline-2,4-diamine]"
5,> 6.30,"Cn1cc(-c2ccc3nc(N4CCN(CCO)CC4)nc(NCc4cccc(Cl)c4)c3c2)ccc1=O [Example 121, 5-(4-((3-chlorobenzyl)amino)-2-(4-(2-hydroxyethyl)piperazin-1-yl)quinazolin-6-yl)-1-methylpyridin-2(1H)-one]"
6,5.30 to 6.30,"Cc1noc(C)c1-c1ccc2nc(N3CCN(CCC(C)C)CC3)nc(NCc3cccc(Cl)c3)c2c1 [Example 21, N-(3-chlorobenzyl)-6-(3,5-dimethylisoxazol-4-yl)-2-(4-isopentylpiperazin-1-yl)quinazolin-4-amine]"
7,5.30 to 6.30,"Cc1noc(C)c1-c1ccc2nc(-c3cnn(CCO)c3)nc(N3CCC(C(=O)O)CC3)c2c1 [Example 255, 1-(6-(3,5-dimethylisoxazol-4-yl)-2-(1-(2-hydroxyethyl)-1H-pyrazol-4-yl)quinazolin-4-yl)piperidine-4-carboxylic acid]"
8,> 6.30,"CC(=O)N1CCN(c2nc(N3CCOC[C@@H]3c3ccccc3)c3cc(-c4c(C)noc4C)ccc3n2)CC1 [Example 294, (S)-1-(4-(6-(3,5-dimethylisoxazol-4-yl)-4-(3-phenylmorpholino)quinazolin-2-yl)piperazin-1-yl)ethan-1-one]"
9,> 6.30,"Cc1noc(C)c1-c1ccc2nc(N3CCN(C(=O)CO)CC3)nc(NCc3cccc(Cl)c3)c2c1 [Example 36, 1-(4-(4-((3-chlorobenzyl)amino)-6-(3,5-dimethylisoxazol-4-yl)quinazolin-2-yl)piperazin-1-yl)-2-hydroxyethanone]"
10,> 6.30,"Cc1noc(C)c1-c1ccc2nc(-c3cnn(CC(N)=O)c3)nc(N3CCOC[C@@H]3c3ccccc3)c2c1 [Example 297, (S)-2-(4-(6-(3,5-dimethylisoxazol-4-yl)-4-(3-phenylmorpholino)quinazolin-2-yl)-1H-pyrazol-1-yl)acetamide]"
11,> 6.30,"Cc1noc(C)c1-c1ccc2nc(C(=O)NC3CN(C)C3)cc(NCc3cccc(Cl)c3)c2c1 [Example 234, 4-((3-chlorobenzyl)amino)-6-(3,5-dimethylisoxazol-4-yl)-N-(1-methylazetidin-3-yl)quinoline-2-carboxamide]"
12,5.30 to 6.30,"Cc1cc(NC(=O)c2nc(NCc3cccc(Cl)c3)c3cc(-c4c(C)noc4C)ccc3n2)cc(C)n1 [Example 224, 4-((3-chlorobenzyl)amino)-6-(3,5-dimethylisoxazol-4-yl)-N-(2,6-dimethylpyridin-4-yl)quinazoline-2-carboxamide]"
13,> 6.30,"Cc1noc(C)c1-c1ccc2nc(C(=O)NCC3CN(C)C3)nc(NCc3cncc(Cl)c3)c2c1 [Example 233, 4-(((5-chloropyridin-3-yl)methyl)amino)-6-(3,5-dimethylisoxazol-4-yl)-N-((1-methylazetidin-3-yl)methyl)quinazoline-2-carboxamide]"
14,5.30 to 6.30,"Cc1noc(C)c1-c1ccc2nc(-c3c(C)noc3C)cc(NCc3cccc(Cl)c3)c2c1 [Example 14, N-(3-chlorobenzyl)-2,6-bis(3,5-dimethylisoxazol-4-yl)quinolin-4-amine]"
15,> 6.30,"Cc1noc(C)c1-c1ccc2nc(C(=O)N(C)C3CCN(C)CC3)nc(NCc3cccc(Cl)c3)c2c1 [Example 211, 4-((3-chlorobenzyl)amino)-6-(3,5-dimethylisoxazol-4-yl)-N-methyl-N-(1-methylpiperidin-4-yl)quinazoline-2-carboxamide]"
16,> 6.30,"Cc1noc(C)c1-c1ccc2nc(N3CCN(CCCN(C)C)CC3)nc(NCc3cncc(Cl)c3)c2c1 [Example 130, N-((5-chloropyridin-3-yl)methyl)-2-(4-(3-(dimethylamino)propyl)piperazin-1-yl)-6-(3,5-dimethylisoxazol-4-yl)quinazolin-4-amine]"
17,> 6.30,"Cn1cc(-c2ccc3nc(N4CCN(CC(C)(C)O)CC4)nc(NCc4cccc(Cl)c4)c3c2)ccc1=O [Example 134, 5-(4-((3-chlorobenzyl)amino)-2-(4-(2-hydroxy-2-methylpropyl)piperazin-1-yl)quinazolin-6-yl)-1-methylpyridin-2(1H)-one]"
18,> 6.30,"Cc1noc(C)c1-c1ccc2nc(C(=O)N[C@H]3CC[C@H](O)CC3)cc(NCc3cccc(Cl)c3)c2c1 [Example 274, 4-((3-chlorobenzyl)amino)-6-(3,5-dimethylisoxazol-4-yl)-N-((trans)-4-hydroxycyclohexyl)quinoline-2-carboxamide]"

# The next lines start with the compound.
row,Compound,pKd
1,"Cc1noc(C)c1-c1ccc2nc(C(=O)NCC3CC(F)(F)C3)nc(NCc3cccc(Cl)c3)c2c1 [Example 256, 4-((3-chlorobenzyl)amino)-N-((3,3-difluorocyclobutyl)methyl)-6-(3,5-dimethylisoxazol-4-yl)quinazoline-2-carboxamide]",5.30 to 6.30
2,"Cc1noc(C)c1-c1ccc2nc(N3CCN(CCN(C)C)CC3)nc(N3CCC(C(=O)O)CC3)c2c1 [Example 254, 1-(2-(4-(2-(dimethylamino)ethyl)piperazin-1-yl)-6-(3,5-dimethylisoxazol-4-yl)quinazolin-4-yl)piperidine-4-carboxylic acid]",5.30 to 6.30
3,"Cc1cnccc1CNC(=O)c1nc(NCc2cccc(Cl)c2)c2cc(-c3c(C)noc3C)ccc2n1 [Example 217, 4-((3-chlorobenzyl)amino)-6-(3,5-dimethylisoxazol-4-yl)-N-((3-methylpyridin-4-yl)methyl)quinazoline-2-carboxamide]",> 6.30
4,"Cc1noc(C)c1-c1ccc2nc(N3CCC(C)(C#N)CC3)nc(NCc3cncc(Cl)c3)c2c1 [Example 157, 1-(4-(((5-chloropyridin-3-yl)methyl)amino)-6-(3,5-dimethylisoxazol-4-yl)quinazolin-2-yl)-4-methylpiperidine-4-carbonitrile]",> 6.30
5,"Cc1cnc(CNC(=O)c2nc(NCc3cccc(Cl)c3)c3cc(-c4c(C)noc4C)ccc3n2)s1 [Example 213, 4-((3-chlorobenzyl)amino)-6-(3,5-dimethylisoxazol-4-yl)-N-((5-methylthiazol-2-yl)methyl)quinazoline-2-carboxamide]",> 6.30
6,"Cn1cc(-c2ccc3nc(-c4cnn(C(C)(C)CO)c4)nc(NCc4cccc(Cl)c4)c3c2)ccc1=O [Example 105, 5-(4-((3-chlorobenzyl)amino)-2-(1-(1-hydroxy-2-methylpropan-2-yl)-1H-pyrazol-4-yl)quinazolin-6-yl)-1-methylpyridin-2(1H)-one]",> 6.30
7,"Cc1nn(C)cc1CNC(=O)c1cc(NCc2cccc(Cl)c2)c2cc(-c3c(C)noc3C)ccc2n1 [Example 230, 4-((3-chlorobenzyl)amino)-N-((1,3-dimethyl-1H-pyrazol-4-yl)methyl)-6-(3,5-dimethylisoxazol-4-yl)quinoline-2-carboxamide]",> 6.30
8,"CNC(=O)Cn1cc(-c2nc(NCc3cccc(Cl)c3)c3cc(-c4ccc(=O)n(C)c4)ccc3n2)cn1 [Example 102, 2-(4-(4-((3-chlorobenzyl)amino)-6-(1-methyl-6-oxo-1,6-dihydropyridin-3-yl)quinazolin-2-yl)-1H-pyrazol-1-yl)-N-methylacetamide]",> 6.30
9,"Cc1noc(C)c1-c1ccc2nc(C(=O)NC3CCN(C)CC3)nc(NCc3cncc(Cl)c3)c2c1 [Example 209, 4-(((5-chloropyridin-3-yl)methyl)amino)-6-(3,5-dimethylisoxazol-4-yl)-N-(1-methylpiperidin-4-yl)quinazoline-2-carboxamide]",> 6.30
10,"Cc1noc(C)c1-c1ccc2nc(C(=O)NC3CCS(=O)(=O)CC3)nc(NCc3cncc(Cl)c3)c2c1 [Example 239, 4-(((5-chloropyridin-3-yl)methyl)amino)-6-(3,5-dimethylisoxazol-4-yl)-N-(1,1-dioxidotetrahydro-2H-thiopyran-4-yl)quinazoline-2-carboxamide]",> 6.30
11,"C[C@H](O)CN1CCN(c2nc(NCc3cccc(Cl)c3)c3cc(-c4ccc(=O)n(C)c4)ccc3n2)CC1 [Example 111, (S)-5-(4-((3-chlorobenzyl)amino)-2-(4-(2-hydroxypropyl)piperazin-1-yl)quinazolin-6-yl)-1-methylpyridin-2(1H)-one]",> 6.30
12,"Cc1noc(C)c1-c1ccc2nc(C(=O)NC3CCN(S(C)(=O)=O)CC3)nc(NCc3cccc(Cl)c3)c2c1 [Example 201, 4-((3-chlorobenzyl)amino)-6-(3,5-dimethylisoxazol-4-yl)-N-(1-(methylsulfonyl)piperidin-4-yl)quinazoline-2-carboxamide]",> 6.30
13,"Cc1noc(C)c1-c1ccc2nc(N3CCN(CCN(C)C)CC3)nc(NCc3cncc(F)c3)c2c1 [Example 83, 2-(4-(2-(dimethylamino)ethyl)piperazin-1-yl)-6-(3,5-dimethylisoxazol-4-yl)-N-((5-fluoropyridin-3-yl)methyl)quinazolin-4-amine]",> 6.30
14,"Cc1noc(C)c1-c1ccc2nc(N3CCN(CCO)CC3)nc(NCc3cccc(Cl)c3)c2c1 [Example 20, 2-(4-(4-((3-chlorobenzyl)amino)-6-(3,5-dimethylisoxazol-4-yl)quinazolin-2-yl)piperazin-1-yl)ethanol]",> 6.30
